Assay results published in patent US9302999B2, “Substituted triazoles as herbicides” (E. I. DU PONT DE NEMOURS AND COMPANY, priority 2012, dated 2016).
Like-named read-outs stand apart in the source and are kept apart here.

What was measured:
Type in all cases: in vivo
[1] = test system: canarygrass (Phalaris minor); assay: Test D pre-/postemergence: canarygrass; details: Postemergence
Source text: (§1) Seeds of plant species selected from bluegrass (annual bluegrass, Poa annua), blackgrass (Alopecurus myosuroides), canarygrass (Phalaris minor), chickweed (common chickweed, Stellaria media), galium (catchweed bedstraw, Galium aparine), bromegrass, downy (downy bromegrass, Bromus tectorum), field poppy (Papaver rhoeas), field violet (Viola arvensis), foxtail, green (green foxtail, Setaria viridis), deadnettle (henbit deadnettle, Lamium amplexicaule), ryegrass, Italian (Italian ryegrass, Lolium multiflorum), kochia (Kochia scoparia), lambsquarters (Chenopodium album), oilseed rape (Brassica napus), pigweed (Amaranthus retroflexus), Russian thistle (Salsola iberica), chamomile (scentless chamomile, Matricaria inodora), speedwell (bird's-eye speedwell, Veronica persica), barley, spring (spring barley, Hordeum vulgare), wheat, spring (spring wheat, Triticum aestivum), buckwheat, wild (wild buckwheat, Polygonum convolvulus), mustard, wild (wild mustard, Sinapis arvensis), oat, wild (wild oat, Avena fatua), radish, wild (wild radish, Raphanus raphanistrum), windgrass (Apera spica-venti), barley, winter (winter barley, Hordeum vulgare), and wheat, winter (winter wheat, Triticum aestivum) were planted into a silt loam soil and treated preemergence with test chemicals formulated in a non-phytotoxic solvent mixture which included a surfactant. At the same time, these same crop and weed species were planted in pots containing the planting medium comprising spaghnum peat moss, vermiculite, wetting agent and starter nutrients and treated with postemergence applications of the test chemicals formulated in the same manner. Plants ranged in height from 2 to 18 cm (1- to 4-leaf stage).
(§2) Treated plants and controls were maintained in a controlled growth environment for 14 to 21 days after which time all species were compared to controls and visually evaluated. Plant response ratings, summarized in Table D, are based on a scale of 0 to 100 where 0 is no effect and 100 is complete control. A dash (-) response means no test result.

[2] = test system: oat, wild (wild oat, Avena fatua); assay: Test D pre-/postemergence: oat, wild; details: Postemergence
Source text: as §1, §2

[3] = test system: chickweed (common chickweed, Stellaria media); assay: Test D pre-/postemergence: chickweed; details: Postemergence
Source text: as §1, §2

[4] = test system: buckwheat, wild (wild buckwheat, Polygonum convolvulus); assay: Test D pre-/postemergence: buckwheat, wild; details: Postemergence
Source text: as §1, §2

[5] = test system: canarygrass (Phalaris minor); assay: Test C postemergence: canarygrass
Source text: (§3) At the same time, plants selected from these crop and weed species and also barley (winter barley, Hordeum vulgare), canarygrass (Phalaris minor), chickweed (common chickweed, Stellaria media) windgrass (Apera spica-venti) and deadnettle (henbit deadnettle, Lamium amplexicaule) were planted in pots containing Redi-Earth® planting medium (Scotts Company, 14111 Scottslawn Road, Marysville, Ohio 43041) comprising spaghnum peat moss, vermiculite, wetting agent and starter nutrients and treated with postemergence applications of test chemicals formulated in the same manner. Plants ranged in height from 2 to 18 cm (1- to 4-leaf stage) for postemergence treatments.
(§4) Treated plants and controls were maintained in a greenhouse for 13 to 15 days, after which time all species were compared to controls and visually evaluated. Plant response ratings, summarized in Table C, are based on a scale of 0 to 100 where 0 is no effect and 100 is complete control. A dash (-) response means no test result.

[6] = test system: windgrass (Apera spica-venti); assay: Test C postemergence: windgrass
Source text: as §3, §4

[7] = test system: windgrass (Apera spica-venti); assay: Test D pre-/postemergence: windgrass; details: Postemergence; for Plant response rating, Windgrass: scale 0 to 100
Source text: as §1, §2

[8] = test system: sedge, umbrella (small-flower umbrella sedge, Cyperus difformis); assay: Test C flooded paddy test: sedge, umbrella; details: scale 0 to 100 (0 no effect, 100 complete control); for pest or weed control at 125 g/ha / pest or weed control at 250 g/ha / pest or weed control at 31 g/ha / pest or weed control at 62 g/ha: Cyperus difformis, read-out: Plant response rating, Sedge, Umbrella
Summary of the method: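 2-leaf stage plants; pots flooded 3 cm above soil; compound applied into paddy water, depth maintained. Greenhouse 13–15 d. Visual rating vs controls, 0–100 (0 = no effect, 100 = complete control); dash = no result.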

[9] = 31 g ai/ha, scale 0 to 100 (0 no effect, 100 complete control)
[10] = 62 g ai/ha, scale 0 to 100 (0 no effect, 100 complete control)
[11] = 125 g ai/ha, scale 0 to 100, 0 no effect, 100 complete control
[12] = 250 g ai/ha, scale 0 to 100 (0 no effect, 100 complete control)
[13] = Flood (flooded paddy test), 125 g ai/ha, visual rating after 13 to 15 days
[14] = Flood (flooded paddy test), 250 g ai/ha, visual rating after 13 to 15 days
[15] = 16 g ai/ha, scale 0 to 100, 0 no effect, 100 complete control

How did the “Plant response rating: Canarygrass” value [1, 9] turn out when `Cc1nn(-c2ccnc(C(F)(F)F)c2)nc1Cc1ccnc(C(F)(F)F)c1` [Compound 137] was run?
The value was 20.

And the “Plant response rating: Canarygrass” value [1, 10]?
Its value is 30.

And the “Plant response rating: Canarygrass” value [1, 11]?
Its value is 50.

What about the “Plant response rating: Canarygrass” value [1, 12] of the same compound?
Its value is 75.

And the “Plant response rating, Canarygrass” value ([1]; 16 g ai/ha, scale 0 to 100)?
The value was 10.

What about the “Plant response rating: Oat, Wild” value [2, 9] of the same compound?
The value was 10.

And the “Plant response rating: Oat, Wild” value [2, 10]?
Its value is 20.

What about the “Plant response rating: Oat, Wild” value [2, 11] of the same compound?
The value was 35.

What about the “Plant response rating: Oat, Wild” value [2, 12] of the same compound?
Its value is 50.

What about the “Plant response rating, Oat, Wild” value ([2]; 16 g ai/ha, scale 0 to 100) of the same compound?
Its value is 0.

What about the “Plant response rating: Chickweed” value [3, 9] of the same compound?
Its value is 50.

What about the “Plant response rating: Chickweed” value [3, 10] of the same compound?
The value was 80.

And the “Plant response rating: Chickweed” value [3, 11]?
Its value is 85.

And the “Plant response rating: Chickweed” value [3, 12]?
Its value is 90.

What about the “Plant response rating, Chickweed” value ([3]; 16 g ai/ha, scale 0 to 100) of the same compound?
Its value is 40.

What about the “Plant response rating: Buckwheat, Wild” value [4, 9] of the same compound?
Its value is 30.

And the “Plant response rating: Buckwheat, Wild” value [4, 10]?
The value was 65.

And the “Plant response rating: Buckwheat, Wild” value [4, 11]?
The value was 65.

And the “Plant response rating: Buckwheat, Wild” value [4, 12]?
The value was 80.

And the “Plant response rating, Buckwheat, Wild” value ([4]; 16 g ai/ha, scale 0 to 100)?
Its value is 30.

And the “Plant response rating, Canarygrass” value [5, 9]?
The value was 45.

And the “Plant response rating, Canarygrass” value [5, 10]?
Its value is 60.

And the “Plant response rating, Canarygrass” value [5, 11]?
The value was 70.

What about the “Plant response rating, Canarygrass” value ([5]; 250 g ai/ha, scale 0 to 100) of the same compound?
The value was 75.

And the “Plant response rating, Windgrass” value [6, 9]?
The value was 40.

And the “Plant response rating, Windgrass” value [6, 10]?
Its value is 50.

What about the “Plant response rating, Windgrass” value [6, 11] of the same compound?
Its value is 70.

What about the “Plant response rating, Windgrass” value ([6]; 250 g ai/ha, scale 0 to 100) of the same compound?
Its value is 90.

And the “Plant response rating: Windgrass” value [7, 10]?
Its value is 40.

And the “Plant response rating: Windgrass” value [7, 11]?
The value was 50.

And the “Plant response rating: Windgrass” value [7, 12]?
The value was 80.

And the “Plant response rating, Windgrass” value ([7]; 16 g ai/ha)?
Its value is 10.

And the “Plant response rating, Windgrass” value ([7]; 31 g ai/ha)?
The value was 20.

For `CCc1nn(-c2ccc(C(F)(F)F)cc2)nc1Oc1cccc(OC(F)(F)F)c1` [Compound 125, 4-ethyl-5-[3-(trifluoromethoxy)phenoxy]-2-[4-(trifluoromethyl)phenyl]-2H-1,2,3-triazole], which pest or weed control at 125 g/ha [8, 13] is on record?
Its pest or weed control at 125 g/ha is 80%.

And the pest or weed control at 250 g/ha [8, 14]?
Its pest or weed control at 250 g/ha is 85%.

What about the pest or weed control at 31 g/ha ([8]; Flood, 31 g ai/ha) of the same compound?
The pest or weed control at 31 g/ha was 0%.

And the pest or weed control at 62 g/ha ([8]; Flood, 62 g ai/ha)?
Its pest or weed control at 62 g/ha is 40%.

`Cc1nn(-c2ccc(C(F)(F)F)cc2)nc1Cc1cccc(C(F)(F)F)c1` [Compound 124] was tested. Which “Plant response rating, Sedge, Umbrella” value [8, 13] did it give?
The value was 90.

What about the “Plant response rating, Sedge, Umbrella” value [8, 14] of the same compound?
The value was 90.

And the “Plant response rating, Sedge, Umbrella” value ([8]; Flood, 31 g ai/ha)?
The value was 50.

What about the “Plant response rating, Sedge, Umbrella” value ([8]; Flood, 62 g ai/ha) of the same compound?
Its value is 90.

And the “Plant response rating, Canarygrass” value [5, 15]?
Its value is 0.

And the “Plant response rating, Canarygrass” value [5, 9]?
The value was 20.

And the “Plant response rating, Canarygrass” value [5, 10]?
Its value is 35.

What about the “Plant response rating, Canarygrass” value [5, 11] of the same compound?
Its value is 85.

What about the “Plant response rating, Windgrass” value [6, 15] of the same compound?
Its value is 50.

And the “Plant response rating, Windgrass” value [6, 9]?
Its value is 80.

What about the “Plant response rating, Windgrass” value [6, 10] of the same compound?
The value was 95.

What about the “Plant response rating, Windgrass” value [6, 11] of the same compound?
Its value is 98.

Which results are given for `COc1nn(-c2ccc(C(F)(F)F)cc2)nc1Cn1ccc(C(F)(F)F)n1` [Compound 17, 4-methoxy-2-[4-(trifluoromethyl)phenyl]-5-[[3-(trifluoromethyl)-1H-pyrazol-1-yl]methyl]-2H-1,2,3-triazole]?
pest or weed control at 62 g/ha ([8]; Flood (flooded paddy test), 62 g ai/ha, visual rating after 13 to 15 days): 20%; pest or weed control at 125 g/ha [8, 13]: 30%; pest or weed control at 250 g/ha [8, 14]: 75%; pest or weed control at 31 g/ha ([8]; Flood, 31 g ai/ha): 0%
